Reference: patent US9187472B2 (AbbVie Inc., priority 2012, dated 2015)

How the values were obtained:
[1] = target: NAMPT (human, recombinant, C-terminally His-tagged) (Homo sapiens, UniProt P43490); experiment: Time-Resolved Fluorescence Resonance Energy Transfer (TR-FRET) Binding Assay of NAMPT; settings: without substrates; 6.8 nM NAMPT, 200 nM probe, 3 hours equilibration
Method in brief: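 Competitive binding against an Oregon Green 488 tracer (200 nM), 6.8 nM His-tagged enzyme, 1 nM Tb antibody, 2% DMSO, 3 h at RT. IC50 derived from TR-FRET ratios.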

NAMPT = NAMPT (Homo sapiens, UniProt P43490); experiment: TR-FRET Binding Assay of NAMPT with PRPP; settings: with 200 μM PRPP and 2.5 mM ATP; 2 nM NAMPT, 2 nM probe, 16 hours equilibration
Method in brief: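 Read-out is TR-FRET after a 16 h equilibration allowing possible compound modification by the enzyme. Final mix: 2 nM NAMPT, 2 nM probe, 1 nM Tb-anti-His antibody, 200 μM PRPP, 2.5 mM ATP, 2% DMSO.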

PC3 cells = experiment: NAMPT Cell Proliferation Assay; format: cell-based; settings: Homo sapiens, PC-3, 120 h, 5 days incubation, cell viability by Cell Titer Glo
Method in brief: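 Proliferation of PC3 cells treated 5 days with a 10-fold compound series (top 10 μM) was quantified by Cell Titer Glo luminescence; IC50s were fitted from percent inhibition.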

NAMPT (human, recombinant, C-terminally His-tagged), sequence (P43490 whole entry): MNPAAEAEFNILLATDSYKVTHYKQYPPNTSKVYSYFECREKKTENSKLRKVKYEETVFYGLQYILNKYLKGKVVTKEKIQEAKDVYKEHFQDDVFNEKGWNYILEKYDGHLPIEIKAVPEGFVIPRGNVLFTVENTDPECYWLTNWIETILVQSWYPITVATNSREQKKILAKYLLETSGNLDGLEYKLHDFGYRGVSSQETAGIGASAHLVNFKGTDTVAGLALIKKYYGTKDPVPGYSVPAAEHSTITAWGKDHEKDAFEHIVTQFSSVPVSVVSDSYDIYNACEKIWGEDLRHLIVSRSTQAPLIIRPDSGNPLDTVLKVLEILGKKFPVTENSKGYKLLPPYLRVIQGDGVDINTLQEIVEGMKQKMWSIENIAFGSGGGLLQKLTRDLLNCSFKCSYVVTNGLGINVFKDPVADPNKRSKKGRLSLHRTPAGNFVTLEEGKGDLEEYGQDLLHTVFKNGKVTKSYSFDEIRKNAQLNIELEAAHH
NAMPT, sequence (P43490 whole entry): as above

| SMILES | IC50 [1] [µM] | IC50 (NAMPT) [µM] | IC50 (PC3 cells) [µM] |
| --- | --- | --- | --- |
| CC(C)(C)OC(=O)N1CCC(c2ccc(C(=O)Nc3ccc4ncc(Cl)n4c3)cc2)CC1 [Example 491, tert-butyl 4-{4-[(3-chloroimidazo[1,2-a]pyridin-6-yl)carbamoyl]phenyl}piperidine-1-carboxylate] | > 10 | 0.0019 | 7.83 |
| CC(C)C(=O)N1CC[C@@H](Oc2ccc(C(=O)NCc3ccn4ccnc4c3)cc2)C1 [Example 492, N-(imidazo[1,2-a]pyridin-7-ylmethyl)-4-{[(3R)-1-(2-methylpropanoyl)pyrrolidin-3-yl]oxy}benzamide] | > 10 | 0.000863 | 1.27 |
| O=C(NCc1ccn2ccnc2c1)c1ccc(O[C@@H]2CCN(C(=O)c3ccccc3)C2)cc1 [Example 493, 4-{[(3R)-1-benzoylpyrrolidin-3-yl]oxy}-N-(imidazo[1,2-a]pyridin-7-ylmethyl)benzamide] | 1.29 | 0.000455 | 0.486 |
| O=C(NCc1ccn2ccnc2c1)c1ccc(O[C@@H]2CCN(C(=O)[C@H]3CCOC3)C2)cc1 [Example 494, N-(imidazo[1,2-a]pyridin-7-ylmethyl)-4-({(3R)-1-[(3S)-tetrahydrofuran-3-ylcarbonyl]pyrrolidin-3-yl}oxy)benzamide] | 7.56 | 0.000712 | 1.22 |
| CC[C@H](C)C(=O)N1CC[C@@H](Oc2ccc(C(=O)NCc3ccn4ccnc4c3)cc2)C1 [Example 495, N-(imidazo[1,2-a]pyridin-7-ylmethyl)-4-({(3R)-1-[(25)-2-methylbutanoyl]pyrrolidin-3-yl}oxy)benzamide] | 1.47 | 0.000399 | 0.127 |
| O=C(NCc1ccn2ccnc2c1)Nc1ccc(Oc2ccccc2)cc1 [Example 496, 1-(imidazo[1,2-a]pyridin-7-ylmethyl)-3-(4-phenoxyphenyl)urea] | 0.199 | 0.00114 | 7.14 |
| CC(C)Cn1cc(-c2ccc(C(=O)NCc3ccn4ncnc4c3)s2)cn1 [Example 497, 5-[1-(2-methylpropyl)-1H-pyrazol-4-yl]-N-([1,2,4]triazolo[1,5-a]pyridin-7-ylmethyl)thiophene-2-carboxamide] | 0.0242 | 0.00286 | 0.742 |
| O=C(NCc1ccn2ccnc2c1)c1ccc(C2CCN(C(=O)c3ccccn3)CC2)cc1 [Example 498, N-(imidazo[1,2-a]pyridin-7-ylmethyl)-4-[1-(pyridin-2-ylcarbonyl)piperidin-4-yl]benzamide] | 0.309 | 0.000169 | 0.0179 |
| CC(C)(C)CC(=O)N1CCC(c2ccc(C(=O)NCc3ccn4ccnc4c3)cc2)CC1 [Example 499, 4-[1-(3,3-dimethylbutanoyl)piperidin-4-yl]-N-(imidazo[1,2-a]pyridin-7-ylmethyl)benzamide] | 0.113 | 0.00038 | 0.00219 |
| Cc1ccc(C(=O)N2CCC(c3ccc(C(=O)NCc4ccn5ccnc5c4)cc3)CC2)cc1 [Example 500, N-(imidazo[1,2-a]pyridin-7-ylmethyl)-4-[1-(4-methylbenzoyl)piperidin-4-yl]benzamide] | 0.181 | 0.000169 | 0.0217 |
| CCC(C)(C)C(=O)N1CCC(c2ccc(C(=O)NCc3ccn4ccnc4c3)cc2)CC1 [Example 501, 4-[1-(2,2-dimethylbutanoyl)piperidin-4-yl]-N-(imidazo[1,2-a]pyridin-7-ylmethyl)benzamide] | 0.104 | 0.000483 | 0.00596 |
| O=C(NCc1ccn2ccnc2c1)c1ccc(C2CCN(C(=O)C3CCCCC3)CC2)cc1 [Example 502, 4-[1-(cyclohexylcarbonyl)piperidin-4-yl]-N-(imidazo[1,2-a]pyridin-7-ylmethyl)benzamide] | 0.169 | 0.000385 | 0.0165 |
| O=C(NCc1ccn2ccnc2c1)c1ccc(C2CCN(C(=O)c3cccs3)CC2)cc1 [Example 503, N-(imidazo[1,2-a]pyridin-7-ylmethyl)-4-[1-(thiophen-2-ylcarbonyl)piperidin-4-yl]benzamide] | 0.0532 | 0.000277 | 0.00421 |
| O=C(NCc1ccn2ccnc2c1)c1ccc(C2CCN(C(=O)CC(F)(F)F)CC2)cc1 [Example 504, N-(imidazo[1,2-a]pyridin-7-ylmethyl)-4-[1-(3,3,3-trifluoropropanoyl)piperidin-4-yl]benzamide] | 0.185 | 0.000361 | 0.0154 |
| CCCC(=O)N1CCC(c2ccc(C(=O)NCc3ccn4ccnc4c3)cc2)CC1 [Example 505, 4-(1-butanoylpiperidin-4-yl)-N-(imidazo[1,2-a]pyridin-7-ylmethyl)benzamide] | 0.253 | 0.000355 | 0.0305 |
| O=C(NCc1ccn2ccnc2c1)c1ccc(C2CCN(C(=O)c3ccc(F)cc3F)CC2)cc1 [Example 506, 4-[1-(2,4-difluorobenzoyl)piperidin-4-yl]-N-(imidazo[1,2-a]pyridin-7-ylmethyl)benzamide] | 0.245 | 0.000407 | 0.018 |
| Cc1ccccc1C(=O)N1CCC(c2ccc(C(=O)NCc3ccn4ccnc4c3)cc2)CC1 [Example 507, N-(imidazo[1,2-a]pyridin-7-ylmethyl)-4-[1-(2-methylbenzoyl)piperidin-4-yl]benzamide] | 0.121 | 0.000359 | 0.0032 |
| O=C(NCc1ccn2ccnc2c1)c1ccc(C2CCN(C(=O)c3ccc(F)cc3)CC2)cc1 [Example 508, 4-[1-(4-fluorobenzoyl)piperidin-4-yl]-N-(imidazo[1,2-a]pyridin-7-ylmethyl)benzamide] | 0.257 | 0.000481 | 0.0286 |
| CC(C)(C)C(=O)N1CCC(c2ccc(C(=O)NCc3ccn4ccnc4c3)cc2)CC1 [Example 509, 4-[1-(2,2-dimethylpropanoyl)piperidin-4-yl]-N-(imidazo[1,2-a]pyridin-7-ylmethyl)benzamide] | 0.163 | 0.000384 | 0.00747 |
| CC/C=C(\C)C(=O)N1CCC(c2ccc(C(=O)NCc3ccn4ccnc4c3)cc2)CC1 [Example 510, N-(imidazo[1,2-a]pyridin-7-ylmethyl)-4-{1-[(2E)-2-methylpent-2-enoyl]piperidin-4-yl}benzamide] | 0.142 | 0.000284 | 0.0121 |
| Cn1nccc1C(=O)N1CCC(c2ccc(C(=O)NCc3ccn4ccnc4c3)cc2)CC1 [Example 511, N-(imidazo[1,2-a]pyridin-7-ylmethyl)-4-{1-[(1-methyl-1H-pyrazol-5-yl)carbonyl]piperidin-4-yl}benzamide] | 0.0653 | 0.000286 | 0.00278 |
| CC1(C(=O)N2CCC(c3ccc(C(=O)NCc4ccn5ccnc5c4)cc3)CC2)COC1 [Example 512, N-(imidazo[1,2-a]pyridin-7-ylmethyl)-4-{1-[(3-methyloxetan-3-yl)carbonyl]piperidin-4-yl}benzamide] | 0.631 | 0.000209 | 0.0179 |
| O=C(NCc1ccn2ccnc2c1)c1ccc(C2CCN(C(=O)c3ccccc3F)CC2)cc1 [Example 513, 4-[1-(2-fluorobenzoyl)piperidin-4-yl]-N-(imidazo[1,2-a]pyridin-7-ylmethyl)benzamide] | 0.0239 | 0.000188 | 0.00118 |
| N#CC1(C(=O)N2CCC(c3ccc(C(=O)NCc4ccn5ccnc5c4)cc3)CC2)CC1 [Example 514, 4-{1-[(1-cyanocyclopropyl)carbonyl]piperidin-4-yl}-N-(imidazo[1,2-a]pyridin-7-ylmethyl)benzamide] | 0.368 | 0.000249 | 0.0308 |
| O=C(NCc1ccn2ccnc2c1)c1ccc(C2CCN(C(=O)C3CCCC3)CC2)cc1 [Example 515, 4-[1-(cyclopentylcarbonyl)piperidin-4-yl]-N-(imidazo[1,2-a]pyridin-7-ylmethyl)benzamide] | 0.18 | 0.000268 | 0.0158 |
| O=C(NCc1ccn2ccnc2c1)c1ccc(C2CCN(C(=O)c3cccc(F)c3)CC2)cc1 [Example 516, 4-[1-(3-fluorobenzoyl)piperidin-4-yl]-N-(imidazo[1,2-a]pyridin-7-ylmethyl)benzamide] | 0.117 | 0.000266 | 0.0213 |
| Cn1cc(C(=O)N2CCC(c3ccc(C(=O)NCc4ccn5ccnc5c4)cc3)CC2)cn1 [Example 517, N-(imidazo[1,2-a]pyridin-7-ylmethyl)-4-{1-[(1-methyl-1H-pyrazol-4-yl)carbonyl]piperidin-4-yl}benzamide] | 0.33 | 0.000264 | 0.0722 |
| CCC(=O)C(=O)N1CCC(c2ccc(C(=O)NCc3ccn4ccnc4c3)cc2)CC1 [Example 518, N-(imidazo[1,2-a]pyridin-7-ylmethyl)-4-[1-(2-oxobutanoyl)piperidin-4-yl]benzamide] | 0.234 | 0.000169 | 0.0348 |
| Cc1cc(C(=O)N2CCC(c3ccc(C(=O)NCc4ccn5ccnc5c4)cc3)CC2)c(C)o1 [Example 519, 4-{1-[(2,5-dimethylfuran-3-yl)carbonyl]piperidin-4-yl}-N-(imidazo[1,2-a]pyridin-7-ylmethyl)benzamide] | 0.218 | 0.000338 | 0.0609 |
